Experiments:
Assay in all cases: relative viability (nuclei count vs DMSO), 5 days (fraction); higher = more cells survive
[1] = compound: N=C1NC(=O)/C(=C/c2ccc(O)cc2)S1 [Mirin] + COc1cc2c(Oc3ccc(NC(=O)C4(C(=O)Nc5ccc(F)cc5)CC4)cc3F)ccnc2cc1OCCCN1CCOCC1 [Foretinib] (partner 0.25 µM)
Method in brief: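 For relative viability, nuclei counts in treated wells were divided by those in vehicle wells. Lung cancer cell lines had been pin-tool dosed in 1536-well plates the day after seeding and cultured for 5 days, then fixed and stained in one step (final 0.05% Triton X-100, 1% formaldehyde, 1 ug/ml Hoechst) and imaged at 4×. Doses were one drug alone or a fixed anchor-drug dose plus five library-drug doses (not always all listed) in √10 steps, and values are duplicate-plate medians.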

[2] = compound: CCC1=CN=CN=C1N2CCN(CC2)CC3=NC4=C(N3)C=C(C=C4)C(F)(F)F
Method in brief: (§1)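 Viability here means nuclei in treated wells divided by nuclei in vehicle wells, reported as the median across plates. Only plates with control CV below 25% and at least one doubling passed. Lung cancer cell lines in 1536-well plates were exposed to five √10-spaced library-drug doses for 5 days and counted from 4× Hoechst images in MetaXpress.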

[3] = compound: CCn1c(-c2nonc2N)nc2cnc(Oc3cccc(NC(=O)c4ccc(OCCN5CCOCC5)cc4)c3)cc21
Method in brief: as §1

[4] = compound: N=C1NC(=O)/C(=C/c2ccc(O)cc2)S1 [Mirin]
Method in brief: as §1

| Cell Line | relative viability ([1]; first compound 0.25 µM) | relative viability ([1]; first compound 0.7906 µM) | relative viability ([1]; first compound 2.5 µM) | relative viability ([1]; first compound 7.906 µM) | relative viability ([1]; first compound 25 µM) | relative viability ([2]; 0.04 µM) | relative viability ([2]; 0.1265 µM) | relative viability ([2]; 0.4 µM) | relative viability ([2]; 1.265 µM) | relative viability ([2]; 4 µM) | relative viability ([3]; 0.04 µM) | relative viability ([3]; 0.1265 µM) | relative viability ([3]; 0.4 µM) | relative viability ([3]; 1.265 µM) | relative viability ([3]; 4 µM) | relative viability ([4]; 0.25 µM) | relative viability ([4]; 0.7906 µM) | relative viability ([4]; 2.5 µM) | relative viability ([4]; 7.906 µM) | relative viability ([4]; 25 µM) |
| --- | --- | --- | --- | --- | --- | --- | --- | --- | --- | --- | --- | --- | --- | --- | --- | --- | --- | --- | --- | --- |
| NCI-H1666 | 0.963 | 1.03 | 1.04 | 0.941 | 0.836 | 0.99 | 0.929 | 0.952 | 0.962 | 0.944 | 1.13 | 1.15 | 1.04 | 0.607 | 0.628 | 1.05 | 1.04 | 0.987 | 0.889 | 0.892 |
| NCI-H2170 | 1.05 | 1 | 1.02 | 0.928 | 0.98 | 0.946 | 0.97 | 0.953 | 0.848 | 0.946 | 0.95 | 0.953 | 0.919 | 0.732 | 0.754 | 1.05 | 0.89 | 0.985 | 0.946 | 0.933 |
| NCI-H522 | – | – | – | – | – | 0.833 | 1.03 | 0.931 | 0.799 | 0.919 | 1.13 | 0.815 | 0.74 | 0.576 | 0.698 | 0.979 | 0.9 | 1.06 | 0.753 | 0.655 |
| LCLC-97TM1 | 0.762 | 0.848 | 0.89 | 0.991 | 0.703 | 0.849 | 0.95 | 1 | 1 | 0.95 | 1.37 | 1.1 | – | 0.899 | 1.03 | 1.1 | 0.706 | 1.13 | 0.621 | 0.677 |
| NCI-H1299 | 1.1 | 1.15 | 1.07 | 1.12 | 1.24 | 1.04 | 1.01 | 0.986 | 1.01 | 1.01 | 1.03 | 0.931 | 0.84 | 0.767 | 0.681 | 0.999 | 1.09 | 1.03 | 1 | 1.16 |
| NCI-H322M | 1.06 | 1.02 | 1.07 | 0.934 | 1.05 | 1.05 | 0.95 | 0.935 | 0.729 | 1.01 | 1.22 | 1.17 | 0.882 | 0.656 | 0.72 | 0.99 | 0.867 | 0.967 | 1.19 | 0.944 |
| NCI-H1395 | 0.908 | 0.994 | 1.03 | 0.977 | 1.14 | 0.837 | 0.86 | 0.943 | 0.769 | 0.892 | 1.13 | 0.837 | 0.769 | 0.469 | 0.563 | 0.948 | – | 0.964 | 0.925 | 0.841 |
| NCI-H2009 | 1.19 | 1.33 | 1.2 | 1.19 | 1.17 | 1.08 | 0.991 | 0.989 | 0.963 | 0.933 | 0.978 | 0.754 | 0.676 | 0.374 | 0.418 | 1.01 | 1.08 | 1.04 | 0.843 | 1.01 |
| NCI-H1651 | 0.814 | 0.845 | 0.773 | 0.678 | 0.69 | 1.08 | 0.961 | 0.978 | 0.909 | 0.988 | 1.05 | 1.01 | 0.826 | 0.7 | 0.648 | 0.962 | 0.973 | 1.03 | 0.866 | 0.918 |
| HARA | 0.817 | – | 0.845 | 0.902 | 0.708 | 0.891 | 0.902 | 0.863 | 0.654 | 1.08 | 1.11 | 0.782 | 0.563 | 0.258 | 0.28 | 1.09 | 0.803 | 0.918 | 0.939 | 0.916 |
| NCI-H1944 | 0.824 | 0.95 | 0.888 | 0.814 | 0.557 | 1.11 | 0.929 | 0.847 | 0.652 | 0.852 | 0.977 | 0.946 | 0.577 | 0.576 | 0.336 | 0.979 | 0.952 | 0.971 | 0.898 | 0.625 |
| NCI-H2405 | 1.04 | 1.04 | 1.01 | 1.03 | 1.07 | 0.968 | 0.989 | 0.981 | – | 1.11 | 1.05 | 0.668 | 0.254 | 0.318 | 0.327 | 0.967 | 0.928 | 0.974 | 0.968 | 0.997 |
| 201T | 1.1 | 1.24 | 1.17 | 1.06 | 1.17 | 0.98 | 0.956 | 0.97 | 0.869 | 1.05 | 1.06 | 0.961 | 0.811 | 0.778 | 0.834 | 1.03 | 1.03 | 0.974 | 1.05 | 1.02 |
| PC-3 [JPC-3] | 1.05 | 1.13 | 1.02 | 1.14 | 1.3 | 1.01 | 0.947 | 0.965 | 1.01 | 1.02 | 1.02 | 0.976 | 0.982 | 0.947 | 0.926 | 1.07 | 1.04 | 1.01 | 1.12 | 1.2 |
| NCI-H1792 | – | – | – | – | – | 0.79 | 0.749 | 0.814 | – | 0.96 | 1.05 | 0.773 | 0.343 | 0.458 | 0.599 | 0.775 | 0.925 | 0.859 | 0.711 | 1.06 |
| HCC-44 | – | – | – | – | – | 0.961 | 0.972 | 0.968 | 1.04 | 0.982 | 1.01 | 1.05 | 0.565 | 0.326 | 0.321 | 0.987 | 1.1 | 0.991 | 0.925 | 1.18 |
| NCI-H1648 | – | – | – | – | – | 0.916 | 0.664 | – | 1.1 | 0.611 | 1.27 | 1.34 | 0.982 | 1.35 | 0.875 | 1.04 | 0.726 | 1.09 | 0.552 | 0.709 |

— the supplement of paper PMC10307832
